{
  "source": "patent US20260355171A1",
  "about": "“INHIBITORS AND USES THEREFOR” (priority 2022, published 2026)",
  "key": {"[1]": {"test_system": "Omicron variant of SARS-CoV-2"}, "[2]": {"test_system": "Delta variant of SARS-CoV-2"}},
  "data": [
    {"smiles": "NC(=O)C1CCN(c2ncccc2CNCc2cccc3[nH]ccc23)CC1", "note": "[Compound 22]", "values": [
      {"measurement": "Titre of Omicron variant", "setting": "[1]", "value": "Significant reduction of titres"},
      {"measurement": "Titre of Delta variant", "setting": "[2]", "value": "Significant reduction of titres"}
    ]}
  ]
}
